Experimental findings from ChEMBL document CHEMBL1157539, “Thousands of chemical starting points for antimalarial lead identification” (Nature, 2010) are described below.

Each structure is given as a SMILES string.

This assay deals with Plasmodium falciparum. Nature of the assay: GSK_TCMDC: Inhibition of Plasmodium falciparum 3D7 in whole erythrocytes, using parasite LDH activity as an index of growth. The class given is functional, organism-based. Conditions: Plasmodium falciparum, 3D7.
`CN(Cc1ccc(-c2ccc(C(F)(F)F)cc2)cc1)C(=O)Cn1c(CCc2cccc(F)c2F)cc(=O)c2ccc(OCCCN3CCCCC3)cc21`: the XC50 amounted to 706 nM.

`O=C(/C=C/c1ccc(Cl)c(Cl)c1)NCCCCCN1CCCN(C(=O)Nc2cccc(Cl)c2)CC1` gave an XC50 of 669 nM.

On to `COc1cccc(C2CCN(CCN3CCC(NC(=O)c4ccc(-c5ccc(Cl)cc5)cc4)CC3)CC2)c1`, for which the XC50 was 1090 nM.

With `Cc1ccc(S(=O)(=O)N2CCN(C(=O)c3cc(-c4ccccc4)n[nH]3)CC2)cc1`, the XC50 came out at 603 nM.

Regarding `COc1cccc(NC(=O)Cn2c(C)c(C(=O)C(F)(F)F)c3ccccc32)c1`, the XC50 came to 827 nM.

Compound `CC(C)CN1CCN(c2nc(C#N)c3c(c2C(=S)NC2CCCCC2)CC(C)(C)OC3)CC1` displayed an XC50 of 296 nM.

The compound `Cc1nc2nc(N)nc(N)c2c(C)c1Cc1ccc(O)cc1` gave an XC50 of 236 nM.

Compound `COCC(=O)N(Cc1ccccc1-c1cccc(CNCc2ccc3c(c2)OCO3)c1)C1CCN(Cc2ccccc2)CC1` displayed an XC50 of 842 nM.

Compound `CCC(C)NC(=O)CN1CN(c2ccccc2)C2(CCN(C(=O)c3ccc(-c4ccccc4)cc3)CC2)C1=O` (centres undefined) returned an XC50 of 128 nM.

`COc1ccc(CCNCCCCCCNCCc2ccc(OC)c(OC)c2Cl)c(Cl)c1OC` registered an XC50 of 904 nM.

As to `CCCCC(=O)Nc1cc(=O)[nH]c2nc(-c3ccc(Cl)cc3)nn12`, the XC50 turned out to be 708 nM.

In turn, `Clc1ccc(C=NN=c2cc[nH]c3ccccc23)cc1` gave an XC50 of 723 nM.

`O=C(Nc1ccc2[nH]c(-c3ccccc3)nc2c1)c1cc(-c2ccc3c(c2)OCCO3)n[nH]1` showed an XC50 of 769 nM.

As for `N=C(N)NN=Cc1ccc2c(ccc3ccccc32)c1`, the XC50 came out at 634 nM.

On to `O=C(Nc1ccc(OC2CCN(Cc3ccc(F)cc3)C2)c(Cl)c1)c1cccs1` (centres undefined), for which the XC50 amounted to 128 nM.

With `c1ccc2oc(-c3cc4ccncc4cc3OC3CCNCC3)cc2c1`, the XC50 worked out at 1470 nM.

In the case of `COc1ccccc1-c1cccc(-c2cccc(NC(=O)c3ccc([N+](=O)[O-])o3)c2)n1`, the XC50 came out at 603 nM.

In turn, `Cc1nc2nc(N)nc(N)c2c(C)c1Cc1ccc(N)cc1` registered an XC50 of 644 nM.

Turning to `COc1ccc(Nc2nc(NN=Cc3cc(Br)c(O)cc3O)nc(Nc3ccc([N+](=O)[O-])cc3)n2)cc1`, the XC50 was 896 nM.

`CC(=NNC(S)=NCCc1ccccc1)c1ccccn1`: the XC50 turned out to be 218 nM.

In turn, `O=C(NCCCCN1CCC(c2c[nH]c3ccccc23)CC1)c1ccc(-c2ccc(C(F)(F)F)cc2)cc1` had an XC50 of 798 nM.

`COc1cc(CC(C)NCC(O)c2cccc(C(F)(F)F)c2)ccc1OCc1ccccc1` (centres undefined) yielded an XC50 of 818 nM.

`CN(c1cc(NC(=O)c2cccs2)ccn1)C1CCN(Cc2ccccc2)CC1`: the XC50 was 1020 nM.

Take `COc1cccc(NC(=O)Cn2c(C)c(C#N)c3ccccc32)c1`: the XC50 came to 878 nM.

Take `CN1CCCN(Cc2ccc(-c3cccc(NC(=O)c4ccc(C#N)cc4)c3)cc2)CC1`: the XC50 came out at 744 nM.

Consider `Cc1cccc2nc(-c3ccc(-c4ccc(CN5CCN(CCN6CCOCC6)CC5)cc4)cc3)[nH]c12`, for which the XC50 turned out to be 231 nM.

`O=C(NCCCN1CCOCC1)c1cccc(Nc2nccc(Nc3ccc(Oc4ccccc4)cc3)n2)c1` yielded an XC50 of 766 nM.

For `CCCNCc1ccc(-c2ccc(CN(Cc3ccc4c(c3)OCO4)C(=O)[C@H]3CCCO3)cc2)nc1`, the XC50 was 811 nM.

Turning to `CC(C)C(=O)NC(c1cccs1)c1cc(Cl)c2cccnc2c1O` (centres undefined), the XC50 came out at 575 nM.

Turning to `O=C(NCCCCN1CCC(c2ccc(Br)cc2)CC1)c1ccc(NC(=O)c2ccc(Cl)cc2)cc1`, the XC50 is 712 nM.

Regarding `Cc1cc(F)ccc1-c1nc(Nc2ccncc2)c2ccn(C)c2n1`, the XC50 turned out to be 940 nM.

On to `CN(C)CCN(C)Cc1cccc(-c2cccc(NC(=O)c3cccc(C#N)c3)c2)c1`, for which the XC50 worked out at 873 nM.

`COc1ccc(Nc2ncc(Cl)c(Nc3cccnc3C(N)=O)n2)cc1N1CCN(C)CC1` gave an XC50 of 225 nM.

As to `O=C(Nc1ccc(C(F)(F)F)cc1)Nc1ccccc1N1CCNCC1`, the XC50 was 500 nM.

Consider `Cc1nc(C)c(-c2ccc(Oc3ccc(OC(F)(F)F)cc3)cc2)c(O)c1I`, for which the XC50 came out at 128 nM.

With `O=C(/C=C/c1ccc(Cl)c(Cl)c1)NC1CCC(CN2CCC(c3nc4ccccc4s3)CC2)CC1` (centres undefined), the XC50 turned out to be 1020 nM.

`O=c1[nH]c2ccc(Nc3nccc(NCCc4ccccc4)n3)cc2[nH]1` returned an XC50 of 1210 nM.

For the compound `Cn1cccc1C(=O)Nc1cccc(-c2nn3ccccc3c2-c2ccnc(Nc3ccc4c(c3)OCCO4)n2)c1`, the XC50 was determined as 1350 nM.

In the case of `CCC(C)CN1CCC(N(C)c2cc(NC(=O)c3cccc(C)c3)ccn2)CC1` (centres undefined), the XC50 is 937 nM.

As for `O=C(/C=C/c1ccc(Cl)c(Cl)c1)NCC1CCC(N2CCC(c3c[nH]c4ccccc34)CC2)CC1` (centres undefined), the XC50 amounted to 172 nM.

`COc1cccc(-c2ccc(NC(=O)C3CCCN(Cc4cccc(OC)c4O)C3)cc2)c1` (centres undefined) registered an XC50 of 847 nM.

On to `Oc1ccc(Cc2ccccc2)cc1CNC1CCCCC1`, for which the XC50 was 188 nM.

Compound `NC1=NC(c2ccccc2)(c2ccccc2)C(=O)N1Cc1ccccc1Br` returned an XC50 of 865 nM.

With `COc1ccc(Cc2nc3c(n2C(C)=O)SC(c2ccc(Cl)c(Cl)c2)=NN3C(C)=O)cc1`, the XC50 is 809 nM.

`OCC(CO)(CO)NCc1ccc2c3c(cccc13)-c1ccccc1-2` registered an XC50 of 1260 nM.

Regarding `O=S(=O)(NCCN1CCCC1)c1cccc(-c2cccc(CNCc3ccsc3)c2)c1`, the XC50 stood at 872 nM.

As for `C=CCC(C(=O)Nc1ccnc2ccc(OC)cc12)C1CCN(CCCCCCC)CC1` (centres undefined), the XC50 worked out at 242 nM.

`CC(C)CCNC(=N)c1ccc(OCCCCCOc2ccc(C(=N)NCCC(C)C)cc2)cc1`: the XC50 came out at 534 nM.

In the case of `Cc1[nH]n(-c2cccc(Cl)c2)c(=O)c1-c1ccc(Cl)cc1`, the XC50 turned out to be 929 nM.

As to `COc1ccc(NS(=O)(=O)c2ccc(C(=O)Nc3ccc(C(F)(F)F)cc3)cc2)cc1N1CCN(CC2CC2)CC1`, the XC50 turned out to be 832 nM.

In turn, `O=c1cc(NCCCCNCc2ccc(Br)c(Br)c2)[nH]c2ccccc12` gave an XC50 of 856 nM.

Compound `N#Cc1cccc(NC(=O)Nc2cccc(-c3cccc(-c4nc5cc(F)ccc5[nH]4)c3)c2)c1` displayed an XC50 of 225 nM.

Turning to `O=C(Nc1ccc(N2CCCN(Cc3cccc(F)c3)CC2)cc1)c1ccc(F)cc1`, the XC50 was determined as 837 nM.

The compound `COc1ccc(CC(=O)Nc2ccc(Nc3nc(C)cc(N4CCCC4)n3)cc2)cc1` showed an XC50 of 1110 nM.

Take `COCCNCc1ccc(-c2cccc(CNc3ccc(OC)cc3)c2)cc1`: the XC50 was 1040 nM.

Compound `N#Cc1ccc2[nH]cc(C(=O)CCCCCN(Cc3ccccc3)Cc3ccccc3)c2c1` yielded an XC50 of 785 nM.

Regarding `COc1cc2nccc(Nc3ccc(NC(=O)c4ccc(C)cc4)c(O)c3)c2cc1OC`, the XC50 was determined as 174 nM.

`CCCC(C)NC(=O)C(N)Cc1cccc(I)c1` (centres undefined) yielded an XC50 of 975 nM.

As for `Cc1cn(CC(=O)Nc2cccc(-c3cccc(-c4nc5cc(C(F)(F)F)ccc5[nH]4)c3)c2)c(=O)[nH]c1=O`, the XC50 was 681 nM.

`O=C(Nc1ccc2c(c1)CCN2C1CCN(Cc2cccc(C(F)(F)F)c2)C1)c1ccco1` (centres undefined) returned an XC50 of 564 nM.

As for `O=C(Nc1cc(F)cc(F)c1)N[C@H]1CCN(CCCCCNC(=O)C2CC2c2ccc(Cl)c(Cl)c2)C1` (some centres undefined), the XC50 amounted to 1080 nM.

As for `CCN(CC)Cc1cc(Nc2c3ccc(Cl)cc3nc3cccc(OC)c23)ccc1O`, the XC50 turned out to be 33.4 nM.

Compound `CCC(C)c1ccc(Nc2nc(C)cc(N(CC)CCCN3CCCCC3)n2)cc1` (centres undefined) displayed an XC50 of 332 nM.

In the case of `COc1cc(OC)cc(-c2nn(-c3ccc([N+](=O)[O-])cc3Cl)c(=S)n2Cc2ccco2)c1`, the XC50 was determined as 838 nM.
